Data: publication PMC10404678, “A recombinant technique for mapping functional sites of heterotrimeric collagen helices: Collagen IV CB3 fragment as a prototype for integrin binding” (The Journal of Biological Chemistry, 2023)

Columns and labels:
Assay in all cases: fluorescence polarization competition with fluorescent BOP probe
Assay type in all cases: binding
integrin α2β1 ectodomain = target: T1, integrin α2β1 ectodomain (Homo sapiens, UniProt P05556+P17301)
T1 construct: gene ITGA2; ectodomain heterodimer; alpha with ACID coil and C-terminal StrepII tag, beta with BASE coil and His tag; Expi293 cells, separate pcDNA3.4 vectors

[1] = target: T2, integrin α11β1 ectodomain (Homo sapiens, UniProt P05556+Q9UKX5)
T2 construct: gene ITGA11; ectodomain heterodimer; continuous transcript alpha-GGGS-P2A-beta; alpha with ACID coil and C-terminal StrepII tag, beta with BASE coil and His tag; Expi293 cells; beta1 borders printed for the separate vector

integrin α1β1 ectodomain = target: T3, integrin α1β1 ectodomain (Homo sapiens, UniProt P05556+P56199)
T3 construct: gene ITGA1; ectodomain heterodimer; alpha with ACID coil and C-terminal StrepII tag, beta with BASE coil and His tag; Expi293 cells, separate pcDNA3.4 vectors
T3 sequence (P56199 29-1143): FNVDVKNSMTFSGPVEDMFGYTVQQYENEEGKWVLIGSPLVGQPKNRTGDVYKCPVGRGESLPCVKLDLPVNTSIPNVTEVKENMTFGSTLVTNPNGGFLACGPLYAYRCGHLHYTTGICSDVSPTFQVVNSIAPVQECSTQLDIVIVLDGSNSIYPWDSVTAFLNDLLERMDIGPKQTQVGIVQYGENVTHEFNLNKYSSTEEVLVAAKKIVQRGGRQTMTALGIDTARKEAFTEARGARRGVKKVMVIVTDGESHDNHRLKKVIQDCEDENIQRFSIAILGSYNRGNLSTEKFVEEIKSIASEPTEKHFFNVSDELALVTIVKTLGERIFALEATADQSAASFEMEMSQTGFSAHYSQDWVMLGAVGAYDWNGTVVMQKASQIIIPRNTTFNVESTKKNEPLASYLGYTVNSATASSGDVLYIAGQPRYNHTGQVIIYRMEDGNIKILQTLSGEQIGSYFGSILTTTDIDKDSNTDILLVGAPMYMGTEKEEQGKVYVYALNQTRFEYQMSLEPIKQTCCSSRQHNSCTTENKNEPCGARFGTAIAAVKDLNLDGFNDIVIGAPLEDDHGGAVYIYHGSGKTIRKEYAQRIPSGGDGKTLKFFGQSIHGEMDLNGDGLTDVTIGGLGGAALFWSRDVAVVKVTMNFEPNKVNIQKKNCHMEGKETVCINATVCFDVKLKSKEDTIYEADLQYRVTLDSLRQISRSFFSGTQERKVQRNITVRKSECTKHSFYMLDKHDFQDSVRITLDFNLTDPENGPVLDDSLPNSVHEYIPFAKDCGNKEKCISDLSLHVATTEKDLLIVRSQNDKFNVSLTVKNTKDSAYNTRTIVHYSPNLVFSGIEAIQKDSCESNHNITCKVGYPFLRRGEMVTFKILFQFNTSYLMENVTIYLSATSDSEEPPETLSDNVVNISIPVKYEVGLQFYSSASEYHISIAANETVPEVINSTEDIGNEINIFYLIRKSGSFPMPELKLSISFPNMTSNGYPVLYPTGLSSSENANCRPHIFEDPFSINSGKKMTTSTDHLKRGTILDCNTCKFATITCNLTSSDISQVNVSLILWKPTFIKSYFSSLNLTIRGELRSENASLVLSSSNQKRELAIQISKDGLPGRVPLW
T3 sequence (P05556 21-728): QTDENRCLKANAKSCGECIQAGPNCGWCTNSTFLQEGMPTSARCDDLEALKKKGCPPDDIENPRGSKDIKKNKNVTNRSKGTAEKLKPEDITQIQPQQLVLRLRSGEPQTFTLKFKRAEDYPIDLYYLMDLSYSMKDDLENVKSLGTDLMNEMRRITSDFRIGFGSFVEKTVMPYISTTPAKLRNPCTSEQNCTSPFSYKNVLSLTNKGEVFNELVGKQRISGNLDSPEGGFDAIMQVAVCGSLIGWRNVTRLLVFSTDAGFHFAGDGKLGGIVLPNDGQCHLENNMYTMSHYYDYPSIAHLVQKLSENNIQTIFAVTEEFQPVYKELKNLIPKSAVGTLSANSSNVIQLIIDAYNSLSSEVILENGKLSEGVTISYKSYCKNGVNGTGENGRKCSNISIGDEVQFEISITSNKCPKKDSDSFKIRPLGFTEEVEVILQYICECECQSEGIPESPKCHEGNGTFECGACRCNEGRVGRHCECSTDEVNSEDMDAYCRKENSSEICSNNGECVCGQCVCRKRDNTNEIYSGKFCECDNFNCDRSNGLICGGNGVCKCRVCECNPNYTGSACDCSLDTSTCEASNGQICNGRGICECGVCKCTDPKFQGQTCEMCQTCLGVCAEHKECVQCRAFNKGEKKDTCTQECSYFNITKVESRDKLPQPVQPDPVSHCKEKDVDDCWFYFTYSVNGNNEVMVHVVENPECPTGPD

[2] = target: T4, integrin α10β1 ectodomain (Homo sapiens, UniProt O75578+P05556)
T4 construct: gene ITGA10; ectodomain heterodimer; continuous transcript alpha-GGGS-P2A-beta; alpha with ACID coil and C-terminal StrepII tag, beta with BASE coil and His tag; Expi293 cells; beta1 borders printed for the separate vector
T4 sequence (O75578 23-1120): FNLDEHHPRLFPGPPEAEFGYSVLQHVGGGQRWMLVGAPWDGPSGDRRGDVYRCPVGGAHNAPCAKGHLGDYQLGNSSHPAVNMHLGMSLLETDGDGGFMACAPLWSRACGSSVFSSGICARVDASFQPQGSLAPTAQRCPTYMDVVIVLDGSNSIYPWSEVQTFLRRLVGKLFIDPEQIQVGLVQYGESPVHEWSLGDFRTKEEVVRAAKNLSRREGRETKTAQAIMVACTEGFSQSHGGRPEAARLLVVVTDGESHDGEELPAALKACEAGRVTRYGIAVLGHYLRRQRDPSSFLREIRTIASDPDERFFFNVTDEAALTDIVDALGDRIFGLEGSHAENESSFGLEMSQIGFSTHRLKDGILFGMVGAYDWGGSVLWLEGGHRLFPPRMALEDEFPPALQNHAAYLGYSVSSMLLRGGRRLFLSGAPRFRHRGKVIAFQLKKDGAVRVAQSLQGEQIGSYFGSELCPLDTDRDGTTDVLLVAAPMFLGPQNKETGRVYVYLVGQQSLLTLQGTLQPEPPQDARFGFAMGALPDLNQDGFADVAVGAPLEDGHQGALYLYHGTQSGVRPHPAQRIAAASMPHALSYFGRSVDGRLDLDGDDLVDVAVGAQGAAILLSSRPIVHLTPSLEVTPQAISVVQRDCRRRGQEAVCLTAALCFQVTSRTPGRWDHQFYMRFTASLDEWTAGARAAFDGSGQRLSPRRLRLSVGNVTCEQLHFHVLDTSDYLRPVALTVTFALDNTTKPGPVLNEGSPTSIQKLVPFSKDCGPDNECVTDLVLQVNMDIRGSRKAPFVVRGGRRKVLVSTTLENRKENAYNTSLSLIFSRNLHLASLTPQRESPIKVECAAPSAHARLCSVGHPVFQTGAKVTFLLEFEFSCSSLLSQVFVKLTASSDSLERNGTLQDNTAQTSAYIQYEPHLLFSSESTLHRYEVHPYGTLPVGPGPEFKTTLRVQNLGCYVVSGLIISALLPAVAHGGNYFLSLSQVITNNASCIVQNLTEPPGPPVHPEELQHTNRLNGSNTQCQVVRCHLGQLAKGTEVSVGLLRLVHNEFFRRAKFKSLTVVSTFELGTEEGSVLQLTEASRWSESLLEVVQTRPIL
T4 sequence (P05556 21-728): as the sequence (P05556 21-728) above

integrin α3β1 = target: T5, integrin α3β1 (Homo sapiens, UniProt P05556+P26006)
T5 construct: gene ITGA3; purchased recombinant heterodimer (R&D Systems), extracellular domains
T5 sequence (P26006 33-872 limits assumed): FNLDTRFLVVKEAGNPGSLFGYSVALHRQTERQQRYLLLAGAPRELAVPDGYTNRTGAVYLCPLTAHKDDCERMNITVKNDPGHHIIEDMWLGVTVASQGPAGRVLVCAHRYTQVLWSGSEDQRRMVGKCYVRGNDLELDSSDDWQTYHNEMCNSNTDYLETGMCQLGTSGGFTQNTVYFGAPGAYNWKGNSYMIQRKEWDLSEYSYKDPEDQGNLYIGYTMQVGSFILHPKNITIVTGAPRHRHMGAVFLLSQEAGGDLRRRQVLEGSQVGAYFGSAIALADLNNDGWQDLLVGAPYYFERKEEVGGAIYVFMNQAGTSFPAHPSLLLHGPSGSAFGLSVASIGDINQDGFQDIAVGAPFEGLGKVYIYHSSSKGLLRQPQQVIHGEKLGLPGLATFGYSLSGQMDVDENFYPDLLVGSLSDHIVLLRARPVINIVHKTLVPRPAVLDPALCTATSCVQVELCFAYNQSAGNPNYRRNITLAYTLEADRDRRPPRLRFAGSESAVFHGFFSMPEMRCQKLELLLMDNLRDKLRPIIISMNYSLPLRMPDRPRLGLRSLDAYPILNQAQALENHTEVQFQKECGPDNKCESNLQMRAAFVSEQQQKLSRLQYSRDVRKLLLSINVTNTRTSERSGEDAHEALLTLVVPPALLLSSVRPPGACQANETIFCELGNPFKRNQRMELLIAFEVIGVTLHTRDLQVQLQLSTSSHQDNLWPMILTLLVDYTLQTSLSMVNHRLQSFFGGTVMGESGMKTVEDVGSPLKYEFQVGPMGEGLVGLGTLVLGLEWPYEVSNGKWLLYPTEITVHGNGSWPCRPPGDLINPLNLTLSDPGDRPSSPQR
T5 sequence (P26006 876-991 limits assumed): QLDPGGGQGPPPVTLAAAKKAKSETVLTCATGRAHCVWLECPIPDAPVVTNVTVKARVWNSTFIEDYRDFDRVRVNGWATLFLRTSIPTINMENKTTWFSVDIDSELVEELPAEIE
T5 sequence (P05556 21-728 limits assumed): as the sequence (P05556 21-728) above

In the case of `O=C(O)[C@H](Cc1ccc(OC(=O)N2CCCC2)cc1)NC(=O)[C@@H]1CCCN1S(=O)(=O)c1ccccc1` [BOP, N-(Benzenesulfonyl)-L-prolyl-L-O-(1-pyrrolidinylcarbonyl)tyrosine], the IC50 (integrin α2β1 ectodomain) is reported as 16.2 nM, the IC50 [1] is reported as 118 nM and the IC50 (integrin α1β1 ectodomain) is reported as 80.7 nM. For the same molecule, the IC50 [2] was 25.3 nM and the IC50 (integrin α3β1) was 31.2 nM.
